{"source": "patent US20060073121A1", "about": "“Spray formulation for pungency enhancement in Capsicum” (priority 2004, published 2006)", "test_system": "Capsicum frutescens and Capsicum annuum", "test": "Comparative number of folds enhancement of phenyl propanoid intermediates and capsaicinoids by optimized elicitors", "assay_type": "in vivo", "description": "(§1) The flowers of C. frutescens were sprayed with water, which was taken as control. The fruits of C. frutescens which received different treatments were harvested on 25, 30, 35 and 40 days after anthesis and extracted with 1:2 (w/v) of acetonitrile followed by in-vacuo evaporation and resuspension with 1 ml methanol. The extracted samples were centrifuged at 4000 rpm for 10 minutes. The samples were subjected to High Performance Liquid Chromatography for quantification of phenyl proponoid intermediates and major Capsaicinoids. The mobile phase of linear gradient of 0-100 % acetonitrile in water with pH 3.0 for 35 minutes and 100% was maintained for 2 minutes at 35th minute. The detection was at 236 nm and flow rate was maintained at 1 ml/min. C-18 column of 250×4.6 mm and 5-μm diameter was used. The reagent used was of HPLC grade. The intermediates of phenyl proponoid pathway (Phenylalanine, Cinnamic acid, Coumaric acid, Caffeic acid, Ferulic acid and Vanillylamine) and two major Capsaicinoids (Capsaicin and Dihydrdcapsaicin) were purchased from Sigma Co. A standard stock solution of 1 mg/ml was prepared in methanol. 5 and 10 μl of standards and samples was injected to HPLC for three times and the mean value was calculated. Standard deviation of samples was calculated according to Tukey's method.\nas §1, with “C. annuum var Arka Lohit” for “C. frutescens”, “of Acetonitrile” for “of acetonitrile”, “of 0-100%” for “of 0-100 %”, “and Dihydrocapsaicin)” for “and Dihydrdcapsaicin)”", "key": {"[1]": {"conditions": "35 days after anthesis, optimized concentration: biotic 0.5-1% w/v, abiotic 2.5 μM"}}}
{"smiles": "CC/C=C\\CC1C(=O)CCC1CC(=O)OC", "note": "(stereo not shown) [Methyl Jasmonate]", "values": [{"measurement": "number of folds enhancement of Caffeic Acid", "setting": "[1]", "result": "1.63-3.79 folds"}, {"measurement": "number of folds enhancement of Capsaicin", "setting": "[1]", "result": "1.65-1.88 folds"}, {"measurement": "number of folds enhancement of Cinnamic Acid", "setting": "[1]", "result": "1.42-3.79 folds"}, {"measurement": "number of folds enhancement of Coumaric Acid", "setting": "[1]", "result": "1.25-3.51 folds"}, {"measurement": "number of folds enhancement of Dihydrocapsaicin", "setting": "[1]", "result": "1.41-1.68 folds"}, {"measurement": "number of folds enhancement of Ferulic Acid", "setting": "[1]", "result": "1.59-2.43 folds"}, {"measurement": "number of folds enhancement of Phenylalanine", "setting": "[1]", "result": "1.36-1.52 folds"}, {"measurement": "number of folds enhancement of Vanillylamine", "setting": "[1]", "result": "1.68-1.77 folds"}]}
{"smiles": "O=C([O-])c1ccccc1O.[Na+]", "note": "[Salicylic Acid sodium salt, Salicylic acid sodium salt]", "values": [{"measurement": "number of folds enhancement of Caffeic Acid", "setting": "in vivo", "result": "1.45-1.75 folds"}, {"measurement": "number of folds enhancement of Capsaicin", "setting": "in vivo", "result": "1.26-1.58 folds"}, {"measurement": "number of folds enhancement of Cinnamic Acid", "setting": "in vivo", "result": "1.36-2.50 folds"}, {"measurement": "number of folds enhancement of Coumaric Acid", "setting": "in vivo", "result": "1.28-1.67 folds"}, {"measurement": "number of folds enhancement of Dihydrocapsaicin", "setting": "in vivo", "result": "1.11-1.32 folds"}, {"measurement": "number of folds enhancement of Ferulic Acid", "setting": "in vivo", "result": "1.11-1.28 folds"}, {"measurement": "number of folds enhancement of Phenylalanine", "setting": "in vivo", "result": "1.02-1.44 folds"}, {"measurement": "number of folds enhancement of Vanillylamine", "setting": "in vivo", "result": "1.26-1.28 folds"}]}
